Experimental data published in patent publication EP3366310A1, “L-ARABINOSE AND USES THEREOF AGAINST VIBRIO GENUS BACTERIA” (priority 2017, dated 2018).

What was measured:
[1] = test system: V. cholerae N16961; assay: Microscopy inspection of cell morphology (spherical cells) after exposure to carbon sources; format: cell-based, Vibrio cholerae
Experimental: Cells were grown to exponential phase and spread on a 1% (w/v) agar pad (ultrapure agarose, Invitrogen) for analysis. For snapshot analyses, cells images were acquired using a DM6000-B (Leica) microscope. For time-lapse analyses the agarose pad was made using M9-MM and images were acquired using an Evolve 512 EMCCD camera (Roper Scientific) attached to an Axio Observe spinning disk (Zeiss).
(§1) During experiments in which inventors used an arabinose-inducible promoter to express fluorescently tagged proteins in V. cholerae, they occasionally observed the presence of spherical cells. […]. To better understand this phenotype, inventors grew V. cholerae cells to exponential phase in different liquid media and added increasing concentrations of L-Ara. After a few hours, they inspected the cells morphology at the microscope. […] To see the effect of L-Ara on cell proliferation and growth, overnight cultures were diluted into fresh media containing increasing amounts of the inducer. The OD of these cultures was monitored over time (Figure 2). […].

[2] = test system: EPV50 (derived from El Tor isolate N16961); assay: microbe, parasite or virus in culture; format: cell-based; conditions: Vibrio cholerae
Experimental: An EPV50 (derived from El Tor isolate N16961) overnight culture was diluted 200 times in M9-MM, followed by 2 hours of growth at 30°C before 0.2% L-Ara was added and growth continued for other 5 hours. Cells were checked for complete transition to spherical morphology at the microscope. Serial dilutions of t0 (before L-Ara addition) and t1 (after L-Ara treatment) samples were plated on Luria Bertani (LB) agarose plates and the number of colonies used to calculate the CFU at t0 and t1. The ratio CFU t1 / CFU t0 is used to calculate the percentage of cells able to survive L-Ara treatment and revert to proliferating cells.

[3] = test system: EPV50; assay: Muropeptide analysis (peptidoglycan isolation and UPLC); format: cell-based, Vibrio cholerae
Experimental: EPV50 overnight cultures were diluted 200 times in M9-MM and grown at 30°C. 100 ml were centrifuged after 7 hours of growth and 1L of culture to which 0.2% L-Ara was added after 2 hours was harvested after further 5 hours of incubation. Cells were checked for complete transition to spherical morphology at the microscope. Previously described methods were followed for muropeptide isolation and ultra-performance liquid chromatography (UPLC) analysis [Desmarais et al. and Möll et al.]. After boiling for 2 hours cell pellets with SDS (sodium dodecyl sulfate) the lysates were left stirring over night at room temperature. Cell wall material was pelleted, washed with MQ water to remove the SDS, and digested with pronase E to remove Braun's lipoprotein. Purified peptidoglycan was re-suspended in MQ water and treated overnight with muramidase at 37°C. Soluble muropeptides were reduced with sodium borohydride and the pH then adjusted to 3.5 with phosphoric acid. Samples were injected in an ultra-performance liquid chromatography (UPLC) system to obtain the muropeptide profiles. UPLC separation was performed on a Waters UPLC system equipped with an ACQUITY UPLC BEH C18 Column, 130 Å, 1.7 µm, 2.1 mm × 150 mm (Waters) and a dual wavelength absorbance detector using a linear gradient from buffer A (phosphate buffer 50 mM, pH 4.35) to buffer B (phosphate buffer 50 mM, pH 4.95, methanol 15% (vol/vol)) in a 22-min run with a 0.25 mL/min flow. Elution of muropeptides was detected at 204 nm. Identity of the peaks was assigned by comparison of the retention times and profiles to other chromatograms in which mass spectrometry data has been collected. The relative amounts of the muropeptides and the percentage of cross-linkage were calculated as described by Glauner et al. To calculate the amount of peptidoglycan per cell, the total area of the muropeptides was normalized to the OD of the culture. All values are the means of three independent experiments.

[4] = test system: V. cholerae N16961; assay: Growth curves (optical density at 600 nm over time); format: cell-based, Vibrio cholerae; conditions: for effect on V. cholerae growth or morphology: M9-MM, 0.2% of carbon source (Table 1 and Figure 5)
Experimental: Cells were grown at 30°C in M9 minimal medium supplemented with 0.2% fructose and 1 µg/ml thiamine (M9-MM) and M9-MM + 0.1% casamino acids (M9-MM + CAA) in a 96-well microtiter plate and the optical density at 600 nm followed over time in a Tecan plate reader. The growth curves plotted are the average of three replicates; the standard deviation is represented for each time point.
as §1

[5] = M9-MM supplemented with casamino acids (CAA)
[6] = muropeptide group, M9-MM, 0.2% L-Ara for 5 hours

Row | Compound | L-Ara concentration at which all cells exhibited the spherical phenotype [1, 5] [%] | L-Ara concentration at which spherical cells started to appear [1, 5] [%] | cell morphology ([1]; M9-MM, 0.02% L-Ara, a few hours) | cell shape ([1]; M9-MM, 0.1% L-Ara (Figure 1A)) | L-Ara concentration at which cells became completely round ([1]; M9-MM, a few hours) [%] | L-Ara concentration that triggers a toxic response (stop of proliferation, loss of rod-shape) ([1]; Vibrio cholerae, summary statement) [%] | killing at 0.2 % ([2]; 5 h, read-out: cell death) [%] | viability at 0.2 % ([2]; M9-MM, 0.2% L-Ara for 5 hours, ratio CFU t1 / CFU t0, read-out: percentage of survival to L-Ara treatment) [%] | Anhydro-muropeptides (%) [3, 6] | DAP-DAP cross-linked muropeptides (%) [3, 6] | Dimers (%) [3, 6] | Trimers (%) [3, 6] | Monomers (%) ([3]; muropeptide group, M9-MM, 0.2% L-Ara for 5 hours, mean of three experiments (±SD)) | Average glycan chain length ([3]; peptidoglycan feature, calculated from the number of anhydro-muropeptides, M9-MM, 0.2% L-Ara for 5 hours) | Total cross-linkage (%) ([3]; peptidoglycan feature, M9-MM, 0.2% L-Ara for 5 hours) | amount of peptidoglycan per cell, times lower than in rod-shaped (non-treated) cells ([3]; spherical L-Ara-treated bacteria, 0.2% L-Ara) | glycan chains, times shorter than in non-treated cells ([3]; spherical L-Ara-treated cells, 0.2% L-Ara) | effect on cell growth (OD) ([4]; M9-MM and M9-MM+CAA, increasing amounts of L-Ara) | effect on V. cholerae growth or morphology [4]
1 | O=C[C@H](O)[C@@H](O)[C@@H](O)CO [L-Arabinose] | 0.5 | 0.2 | normal rod-shape | spherical shape with a heterogeneous diameter size | 0.1 | 0.02 | ~50 | ~50 | 21.9 (±3.7) % | 7.5 (±0.9) % | 47.2 (±3.1) % | 12.6 (±4.8) % | 40.2 (±3.2) % | 7.5 (±1.1) | 47.2 (±5.0) % | around 10 times | around 2 times | arrested V. cholerae cell growth | deleterious effects on cell growth or cell morphology
2 | O=C[C@@H](O)[C@H](O)[C@H](O)CO [D-Arabinose, reference compound] | – | – | – | – | – | – | – | – | – | – | – | – | – | – | – | – | – | – | none of them, including D-Arabinose, affected V. cholerae growth or morphology
